Assay [1] has as its target T1, BRAF (Homo sapiens, UniProt P15056).
T1 construct: purchased Invitrogen
Description: Z′-LYTE kinase assay, BRAF (Invitrogen). The format is biochemical. The note with it: Z′-LYTE method. Here is the method: (§1) Inhibitory activities of compounds against BRAF or BRAF V600E were measured by Invitrogen using Z′-LYTE® Method as briefly described in the following.
(§2) 4× Test compounds are dissolved in 1% DMSO. […] ATP solutions are diluted to a 4×ATP working concentration in Kinase Buffer (50 mM HEPES pH 7.5, 0.01% BRIJ-35, 10 mM MgCl2, 1 mM EGTA).
(§3) Reaction starts by 30-second shaking of mixture consisting of 2.5 μL4× test compound, […] and 2.5 μL 4×ATP Solution on Bar-coded Corning, low volume NBS, black 384-well plate (Corning Cat. #3676). Then the mixture is incubated for 60-minute at room temperature for the kinase reaction, followed by addition of 5 μL of a 1:1024 dilution of development reagent A and 30-second plate shake. The mixture is then incubated for another 60-minute at room temperature for development reaction. Finally fluorescence is read by plate reader.

The target of assay [2] is T2, BRAF V600E (Homo sapiens, UniProt P15056, V600E).
T2 construct: purchased Invitrogen
The assay can be described thus: Z′-LYTE kinase assay, BRAF V600E (Invitrogen). The format is biochemical. The settings on record: Z′-LYTE method. As to the method: as §1, §2, §3

In another assay the test system is A549 cells. The assay can be described thus: Inhibition of cancer cell growth, MTT assay, A549. Format: cell-based. The settings on record: Homo sapiens, 72 h. As to the method: (§4) Inhibition of cell growth by compounds was measured using MTT assay (Mosmann, T., Journal of Immunological Methods, 1983, 65, 55-63). Tumor cell lines were purchased from ATCC (American Type Culture Collection, Manassas, Va.). All cell lines were maintained in RPMI 1640 (Hyclone) supplemented with 10% fetal bovine serum (FBS, Hyclone), glutamine (2 mM, Hyclone), and antibiotics (penicillin 100 U/mL and streptomycin 50 μg/mL) at 37° C. in a humidified atmosphere of 5% CO2 in air. Taxol (as a positive control, Sigma) and compounds were dissolved in DMSO (Sigma), and the final concentration of DMSO in the medium was 1%. Tumor cells were plated in 96-well plates at densities of about 4000 cells/well of a 96-well plate and allowed to adhere/grow for 24 h. They were then treated with various concentrations of drug for 72 h. 3-(4,5-Dimethylthiazol-2-yl)-2,5-diphenyltetrazolium bromide (MTT, Sigma) was used to determine the number of viable cells at the time of compound addition and the number of cells remaining after 72 h compound exposure. The number of cells remaining after 72 h was compared to the number of viable cells at the time of compound addition by measuring the absorbance at 570 nm, allowing for the calculation of growth inhibition.
(§5) All concentrations of compounds were tested in triplicate and controls were averaged over 4 wells. IC50 was calculated by plotting the concentration of compound vs the percentage of inhibition in treated wells using GraphPad Prism 5.
(§6) The scale utilized in Table 4 is as follows: +++ less than 500 nM; ++ between 500 nM and 1 μM; and + greater than 1 μM.
In general terms: Tetrazolium assays rely on reduction of a dye to a coloured formazan, in cell work by metabolically active cells.

Another assay concerns A375 cells. The assay can be described thus: Inhibition of cancer cell growth, MTT assay, A375. The format is cell-based. The note with it: Homo sapiens, A-375, 72 h (Table 4). As to the method:
as §4, §5, §6

Assay [3] has as its target T1, BRAF. The assay can be described thus: LanthaScreen kinase assay, BRAF. Format: biochemical. The settings on record: ATP 1 μM. As to the method: (§7) The inhibitory activities of compounds against BRAF or BRAF V600E protein were measured using Invitrogne's LanthaScreen™ kinase assay which is based on fluorescein-labeled MAP2K1 as a substrate. The assay procedure is described as follows.
(§8) The scale utilized in Table 3 is as follows: ++++ less than 50 nM; +++ between 50 and 100 nM; ++ between 100 nM and 1 μM; and + greater than 1 μM.
A general note: TR-FRET usually uses a lanthanide donor and a delayed reading to cut background.

The target of assay [4] is T2, BRAF V600E. Description: LanthaScreen kinase assay, BRAF V600E. The format is biochemical. The note with it: ATP 10 μM. Here is the method: as §7, §8

For 15 molecules, inhibition and IC50 results are on record in patent US9295671B2, “Benzenesulfonamide derivatives of quinoxaline, pharmaceutical compositions thereof, and their use in methods for treating cancer” (NEUPHARMA, INC., priority 2011, dated 2016).

T2 sequence (P15056 whole entry V600E): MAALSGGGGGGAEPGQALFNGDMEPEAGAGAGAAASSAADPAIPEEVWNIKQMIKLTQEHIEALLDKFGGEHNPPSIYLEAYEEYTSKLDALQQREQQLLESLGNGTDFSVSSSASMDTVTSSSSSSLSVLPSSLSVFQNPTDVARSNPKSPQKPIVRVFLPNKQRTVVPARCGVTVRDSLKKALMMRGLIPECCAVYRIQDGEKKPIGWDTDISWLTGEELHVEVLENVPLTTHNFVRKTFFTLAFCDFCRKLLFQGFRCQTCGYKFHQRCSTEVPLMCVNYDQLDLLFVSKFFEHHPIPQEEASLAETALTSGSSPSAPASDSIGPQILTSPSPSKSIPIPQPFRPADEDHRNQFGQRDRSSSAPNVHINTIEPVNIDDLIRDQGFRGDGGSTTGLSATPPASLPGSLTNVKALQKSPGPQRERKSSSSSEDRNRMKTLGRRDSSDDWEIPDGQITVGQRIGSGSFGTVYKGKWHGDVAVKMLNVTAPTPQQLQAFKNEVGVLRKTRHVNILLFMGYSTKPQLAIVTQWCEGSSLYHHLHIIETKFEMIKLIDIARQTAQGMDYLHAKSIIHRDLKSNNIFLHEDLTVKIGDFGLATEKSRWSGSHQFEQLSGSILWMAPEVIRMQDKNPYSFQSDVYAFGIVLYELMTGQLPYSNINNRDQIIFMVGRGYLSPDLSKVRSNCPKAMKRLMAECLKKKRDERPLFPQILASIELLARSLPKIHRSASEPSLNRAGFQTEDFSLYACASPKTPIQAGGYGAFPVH
T1 sequence (P15056 whole entry): as the sequence (P15056 whole entry V600E) above, with E600V counted along it

What is called inhibition is the change of the read-out against control, counted positive when it falls. A high value points to strong suppression. As usually defined, the IC50 is the point on the concentration scale where inhibition reaches its midpoint. Low values mean greater potency in that assay, high ones weaker potency in that assay. As to `CCCS(=O)(=O)Nc1ccc(F)c(C(=O)c2ccc3nccnc3c2)c1F` [Compound C01, N-(2,4-difluoro-3-(quinoxaline-6-carbonyl)phenyl)propane-1-sulfonamide], the figures for the inhibition at 1 µM against BRAF [1] and at BRAF V600E [2] were 70 to 89% and above 89%, respectively. Besides, the IC50 in the assay with A549 cells and with A375 cells was below 0.5 µM in each case.

Take `CCCS(=O)(=O)Nc1ccc(F)c(C(=O)c2ccc3ncc(-c4ccc(Cl)cc4)nc3c2)c1F` [Compound C02, N-(3-(3-(4-chlorophenyl)quinoxaline-6-carbonyl)-2,4-difluorophenyl)propane-1-sulfonamide]: the inhibition at 1 µM against BRAF [1] is 70 to 89%; on BRAF V600E [2] it was above 89%. The IC50 in the assay on A549 cells and in the assay with A375 cells was 0.5 to 1 µM in each case.

As to `CCCS(=O)(=O)Nc1ccc(F)c(C(=O)c2ccc3ncc(OC)nc3c2)c1F` [Compound C03, N-(2,4-difluoro-3-(3-methoxyquinoxaline-6-carbonyl)phenyl)propane-1-sulfonamide], the inhibition at 1 µM at BRAF [1] was 70 to 89%; against BRAF V600E [2] it was above 89%. Also, the IC50 in the assay on A549 cells and with A375 cells was above 1 µM throughout.

As for `CCCS(=O)(=O)Nc1ccc(F)c(C(=O)c2ccc3ncc(C#N)nc3c2)c1F` [Compound C05, N-(3-(3-cyanoquinoxaline-6-carbonyl)-2,4-difluorophenyl)propane-1-sulfonamide], the figures for the inhibition at 1 µM against BRAF [1] and on BRAF V600E [2] were 70 to 89% and above 89%, respectively. The IC50 with A549 cells was below 0.5 µM; in the assay on A375 cells it was 0.5 to 1 µM.

On to `CCCS(=O)(=O)Nc1cc(F)c(F)c(C(=O)c2ccc3nccnc3c2)c1` [Compound C07, N-(3,4-difluoro-5-(quinoxaline-6-carbonyl)phenyl)propane-1-sulfonamide], for which the inhibition at 1 µM was below 70% against BRAF [1] and 70 to 89% against BRAF V600E [2]. Besides, the IC50 in the assay with A549 cells is above 1 µM; with A375 cells, 0.5 to 1 µM.

`CCCS(=O)(=O)Nc1cc(F)c(SC)c(C(=O)c2ccc3nccnc3c2)c1F` [Compound C08, N-(2,5-difluoro-4-(methylthio)-3-(quinoxaline-6-carbonyl)phenyl)propane-1-sulfonamide]: the inhibition at 1 µM at BRAF [1] and on BRAF V600E [2] was below 70% each time. The IC50 in the assay with A549 cells and in the assay with A375 cells was above 1 µM each time.

Turning to `CCCS(=O)(=O)Nc1cc(F)c(F)c(C(=O)c2ccc3ncc(OC)nc3c2)c1F` [Compound C10, N-(2,4,5-trifluoro-3-(3-methoxyquinoxaline-6-carbonyl)phenyl)propane-1-sulfonamide], the inhibition at 1 µM was above 89% against BRAF [1] and 70 to 89% against BRAF V600E [2]. Besides, the IC50 is above 1 µM with A549 cells and below 0.5 µM in the assay with A375 cells.

Consider `CCCS(=O)(=O)Nc1cc(F)c(F)c(C(=O)c2ccc3ncc(Cl)nc3c2)c1F` [Compound C11, N-(3-(3-chloroquinoxaline-6-carbonyl)-2,4,5-trifluorophenyl)propane-1-sulfonamide], for which the inhibition at 1 µM was 70 to 89% at BRAF [1] and above 89% against BRAF V600E [2]. Further, the IC50 in the assay on A549 cells and with A375 cells was above 1 µM each time.

Consider `CCCS(=O)(=O)Nc1cc(F)c(F)c(C(=O)c2ccc3ncc(N(C)CCN(C)C)nc3c2)c1F` [Compound C13, N-(3-(3-((2-(dimethylamino)ethyl)(methyl)amino)quinoxaline-6-carbonyl)-2,4,5-trifluorophenyl)propane-1-sulfonamide], for which the inhibition at 1 µM at BRAF [1] and on BRAF V600E [2] was above 89% each time. Further, the IC50 with A549 cells and in the assay on A375 cells was above 1 µM throughout.

Turning to `CCCS(=O)(=O)Nc1cc(F)c(F)c(C(=O)c2ccc3nccnc3c2)c1Cl` [Compound C14, N-(2-chloro-4,5-difluoro-3-(quinoxaline-6-carbonyl)phenyl)propane-1-sulfonamide], the inhibition at 1 µM on BRAF [1] is above 89%; against BRAF V600E [2] it was 70 to 89%. Moreover, the results for the IC50 in the assay with A549 cells and in the assay with A375 cells were above 1 µM and below 0.5 µM, respectively.

`CCCS(=O)(=O)Nc1ccc(F)c(C(=O)c2ccc3nccnc3c2)c1` [Compound C15, N-(4-fluoro-3-(quinoxaline-6-carbonyl)phenyl)propane-1-sulfonamide] returned an inhibition at 1 µM at BRAF V600E [2] below 70%. For the same molecule, the IC50 in the assay on A549 cells and in the assay with A375 cells was above 1 µM in each case.

Turning to `CCCS(=O)(=O)Nc1cc(F)cc(C(=O)c2ccc3nccnc3c2)c1` [Compound C16, N-(3-fluoro-5-(quinoxaline-6-carbonyl)phenyl)propane-1-sulfonamide], the inhibition at 1 µM against BRAF V600E [2] is below 70%. Besides, the IC50 in the assay with A549 cells and with A375 cells was above 1 µM in each case.

At BRAF V600E [2], `CCCS(=O)(=O)Nc1ccc(F)c(C(=O)c2ccc3ncc(N4CCOCC4)nc3c2)c1` [Compound C17, N-(4-fluoro-3-(3-morpholinoquinoxaline-6-carbonyl)phenyl)propane-1-sulfonamide] showed an inhibition at 1 µM below 70%. The IC50 with A549 cells and with A375 cells was above 1 µM throughout.

Molecule `CCCS(=O)(=O)Nc1cc(F)cc(C(=O)c2ccc3ncc(N4CCOCC4)nc3c2)c1` [Compound C18, N-(3-fluoro-5-(3-morpholinoquinoxaline-6-carbonyl)phenyl)propane-1-sulfonamide] yielded an inhibition at 1 µM at BRAF V600E [2] below 70%. Also, the IC50 against BRAF [3] was 0.05 to 0.1 µM; at BRAF V600E [4] it was below 0.05 µM; in the assay on A549 cells it was above 1 µM; with A375 cells, above 1 µM.

`CCCS(=O)(=O)Nc1cc(F)c(F)c(C(=O)c2ccc3ncc(N4CCOCC4)nc3c2)c1` [Compound C37, N-(3,4-difluoro-5-(3-morpholinoquinoxaline-6-carbonyl)phenyl)propane-1-sulfonamide]: the inhibition at 1 µM at BRAF V600E [2] lay in the range of 70 to 89%. Moreover, the IC50 at BRAF [3] is 0.1 to 1 µM; at BRAF V600E [4], 0.05 to 0.1 µM; in the assay with A549 cells, above 1 µM; in the assay on A375 cells, above 1 µM.
